Test results: PMC10141386, “The Blockade of Mitogen-Activated Protein Kinase 14 Activation by Marine Natural Product Crassolide Triggers ICD in Tumor Cells and Stimulates Anti-Tumor Immunity” (Marine Drugs, 2023)

Target: MAPK14 (p38 alpha) (Homo sapiens, UniProt Q16539)
Assay: Z′-LYTE FRET kinase assay (SelectScreen, MAPK14 direct, Ser/Thr […] peptide)
Format: biochemical

Sequence of MAPK14 (p38 alpha) (Q16539 2-360): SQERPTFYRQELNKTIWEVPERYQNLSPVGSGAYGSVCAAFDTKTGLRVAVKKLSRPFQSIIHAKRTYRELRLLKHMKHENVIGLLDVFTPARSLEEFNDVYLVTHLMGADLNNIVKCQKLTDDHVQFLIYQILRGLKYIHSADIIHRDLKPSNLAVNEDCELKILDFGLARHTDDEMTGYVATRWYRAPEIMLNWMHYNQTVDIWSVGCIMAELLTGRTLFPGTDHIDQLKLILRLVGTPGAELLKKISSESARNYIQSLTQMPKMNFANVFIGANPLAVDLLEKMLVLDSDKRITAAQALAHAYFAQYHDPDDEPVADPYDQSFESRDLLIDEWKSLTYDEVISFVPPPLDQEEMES

IC50: ~5.15 µM
Compound: C=C1C(=O)OC2C1C(OC(C)=O)C/C(C)=C/CC(OC(C)=O)/C(C)=C/CC(OC(C)=O)C1(C)OC21 (stereo not shown) [crassolide]
